Results from US8779004B2, “Stable emulsion formulations” (Amgen, Inc., priority 2006, dated 2014).
Marks after values point to notes of the source that are not given here.

Test: pH and particle size of crude cinacalcet emulsions with different oils and phospholipids
Type: physicochemical
Experimental: Table 4 illustrates the effect of different oils and phospholipids on pH and particle size of crude emulsions prepared for cinacalcet. The particle size distribution of the droplets was measured using light diffraction techniques after dilution of the emulsion in water. The particle size is represented by D(4,3) which is the volume corrected mean of the particles (units). As used herein, SBO—soybean oil (long chain triglycerides); MCT—medium chain triglycerides; STG—structured triglycerides (including PEGylated oils)
Coarse prototype emulsion formulations were prepared at a batch size of 10 mLs by an Ultraturrax T25 S1 Janke and Kunkel blade homogenizer equipped with a 10 mm rotostator, followed by sonication from a Vibracell Ultrasonicator with a titanium microtip probe. Batches at a 40 mL size were prepared in a similar manner, with the exception of the ultrasonicator having a ¾″ titanium probe tip.
Coarse prototype emulsions at a batch size of 10-40 mLs were prepared by mixing the oil with lecithin by a blade mixer at 60° C. protected by a nitrogen headspace. Cinacalcet was added and mixed well, followed by the addition of the aqueous phase containing glycerin and buffer until a homogenous mixture was made. A sonicator probe was used to further process the emulsion premix while maintaining the nitrogen headspace. Coarse emulsions prepared by sonication were centrifuged at 3K RPM to remove gross particulates on a Dupont Sorval centrifuge, and dispensed by removal of the top contents of the emulsion for evaluation.

[1] = crude emulsion, MCT 5%, 1% Purified Egg Lecithin
[2] = crude emulsion, MCT 5%, 1% Purified Soy Lecithin
[3] = crude emulsion, MCT 5%, 2% Purified Egg Lecithin
[4] = crude emulsion, MCT 5%, % Purified Soy Lecithin
[5] = crude emulsion, MCT 10%, 1% Purified Egg Lecithin
[6] = crude emulsion, MCT 10%, 1% Purified Soy Lecithin
[7] = crude emulsion, MCT 10%, 2% Purified Egg Lecithin
[8] = crude emulsion, MCT 10%, % Purified Soy Lecithin
[9] = crude emulsion, MCT 20%, 1% Purified Egg Lecithin
[10] = crude emulsion, MCT 20%, 1% Purified Soy Lecithin
[11] = crude emulsion, MCT 20%, 2% Purified Egg Lecithin
[12] = crude emulsion, MCT 20%, % Purified Soy Lecithin
[13] = crude emulsion, SBO 5%, 1% Purified Egg Lecithin
[14] = crude emulsion, SBO 5%, 1% Purified Soy Lecithin
[15] = crude emulsion, SBO 5%, 2% Purified Egg Lecithin
[16] = crude emulsion, SBO 5%, % Purified Soy Lecithin
[17] = crude emulsion, SBO 10%, 1% Purified Egg Lecithin
[18] = crude emulsion, SBO 10%, 1% Purified Soy Lecithin
[19] = crude emulsion, SBO 10%, 2% Purified Egg Lecithin
[20] = crude emulsion, SBO 10%, % Purified Soy Lecithin
[21] = crude emulsion, SBO 20%, 1% Purified Egg Lecithin
[22] = crude emulsion, SBO 20%, 1% Purified Soy Lecithin
[23] = crude emulsion, SBO 20%, 2% Purified Egg Lecithin
[24] = crude emulsion, SBO 20%, % Purified Soy Lecithin
[25] = crude emulsion, STG 5%, 1% Purified Egg Lecithin
[26] = crude emulsion, STG 5%, 2% Purified Egg Lecithin
[27] = crude emulsion, STG 10%, 1% Purified Egg Lecithin
[28] = crude emulsion, STG 10%, 2% Purified Egg Lecithin
[29] = crude emulsion, STG 20%, 1% Purified Egg Lecithin
[30] = crude emulsion, STG 20%, 2% Purified Egg Lecithin

C[C@@H](NCCCc1cccc(C(F)(F)F)c1)c1cccc2ccccc12 [Cinacalcet, N-(1-(R)-(1-naphthyl)ethyl]-3-[3-(trifluoromethyl)phenyl]-1-aminopropane]
D(4, 3) [1]: 0.39 µm | pH [1]: 8.58 | D(4, 3) [2]: 0.36 µm | pH [2]: 9.12 | D(4, 3) [3]: 0.35 µm | pH [3]: 8.39 | D(4, 3) [4]: 0.32 µm | PH [4]: 8.97 | D(4, 3) [5]: 0.53 µm | pH [5]: 8.61 | D(4, 3) [6]: 0.21 µm | pH [6]: 9.09 | D(4, 3) [7]: 0.4 µm | pH [7]: 8.29 | D(4, 3) [8]: 0.44 µm | PH [8]: 8.99 | D(4, 3) [9]: 0.57 µm | pH [9]: 8.41 | D(4, 3) [10]: 0.47 µm | pH [10]: 8.81 | D(4, 3) [11]: 0.42 µm | pH [11]: 8.23 | D(4, 3) [12]: 0.31 µm | PH [12]: 8.95 | D(4, 3) [13]: 1.07 µm | pH [13]: 8.81 | D(4, 3) [14]: 1.3 µm | pH [14]: 8.94 | D(4, 3) [15]: 0.77 µm | pH [15]: 8.53 | D(4, 3) [16]: 0.81 µm | PH [16]: 8.99 | D(4, 3) [17]: 0.65 µm | pH [17]: 8.80 | D(4, 3) [18]: 0.98 µm | pH [18]: 8.86 | D(4, 3) [19]: 0.68 µm | pH [19]: 8.46 | D(4, 3) [20]: 0.4 µm | PH [20]: 8.91 | D(4, 3) [21]: 1.42 µm | pH [21]: 8.62 | D(4, 3) [22]: 1.4 µm | pH [22]: 8.73 | D(4, 3) [23]: 1.06 µm | pH [23]: 8.39 | D(4, 3) [24]: 0.49 µm | PH [24]: 8.82 | D(4, 3) [25]: 0.72 µm | pH [25]: 8.55 | pH (crude emulsion, STG 5%, 1% Purified Soy Lecithin): 9.09 | D(4, 3) [26]: 0.52 µm | pH [26]: 8.46 | PH (crude emulsion, STG 5%, % Purified Soy Lecithin): 9.04 | D(4, 3) [27]: 1.23 µm | pH [27]: 8.71 | pH (crude emulsion, STG 10%, 1% Purified Soy Lecithin): 9.00 | D(4, 3) [28]: 0.81 µm | pH [28]: 8.37 | PH (crude emulsion, STG 10%, % Purified Soy Lecithin): 9.01 | D(4, 3) [29]: 0.84 µm | pH [29]: 8.52 | pH (crude emulsion, STG 20%, 1% Purified Soy Lecithin): 8.99 | D(4, 3) [30]: 1.18 µm | pH [30]: 8.28 | PH (crude emulsion, STG 20%, % Purified Soy Lecithin): 9.07 | D(4, 3) (emulsion, STG 5%, 1% Purified Soy Lecithin, after a single autoclaving cycle): 0.40^a | D(4, 3) (emulsion, STG 5%, % Purified Soy Lecithin, after a single autoclaving cycle): 0.34^a | D(4, 3) (emulsion, STG 10%, 1% Purified Soy Lecithin, after a single autoclaving cycle): 0.73^a | D(4, 3) (emulsion, STG 10%, % Purified Soy Lecithin, after a single autoclaving cycle): 0.41^a | D(4, 3) (emulsion, STG 20%, % Purified Soy Lecithin, after a single autoclaving cycle): 0.46^a
